Assay: aqueous solubility at different pH
From the text: Moreover, alkaline agents, such as sodium bicarbonate, calcium carbonate, meglumine, and calcium phosphate, can be used to convert salt forms of amine drugs to free base. Generally, free bases have much lower solubility than their salts.

COc1ccc2c3c1O[C@H]1C(=O)CC[C@@]4(O)[C@@H](C2)N(C)CC[C@]314.Cl [oxycodone hydrochloride]
solubility (pH 1.5, simulated gastric fluid): 182 mg/mL | solubility (pH 7.4, aqueous buffer): 6.1 mg/mL

Source: patent publication US9308176B2, “Less abusable pharmaceutical preparations” (Supernus Pharmaceuticals, Inc, priority 2004, dated 2016)
